From patent US6787569B1, “Therapeutic guanidines” (Cambridge NeuroScience, Inc., priority 1994, dated 2004)

Experiments:
[1] = test system: depolarization-induced 3H-glutamate release from brain nerve terminals; test: Inhibition of 3H-glutamate release, high [K+] depolarization, rapid superfusion of synaptosomes; assay type: biochemical; details: rat brain synaptosomes; for % Inhibition of ^3H-Glu Rel @ 0.3 μM: 0.3 μM compound; for % Inhibition of ^3H-Glu Rel @ 1 μM: 1 μM compound
[2] = test system: audiogenic seizures in DBA/2 mice; test: In vivo anticonvulsant activity in the DBA/2 mouse model (audiogenic seizures); details: 30 minutes prior to auditory stimulus
Procedure: Compounds were tested for their effectiveness in preventing seizures in DBA/2 mice which have a unique sensitivity to auditory stimulation. Exposure to loud high-frequency sounds can trigger seizure activity in these animals. This sensitivity develops from postnatal day 12 and peaks around day 21 and slowly diminishes as the animals mature. The unusual response to auditory stimulation in this strain of mouse is believed to be due to a combination of early myelination (causing an unusually low excitatory threshold) and delayed development of inhibitory mechanisms. Glutamate, the predominant excitatory neurotransmitter, has been implicated in this response. Blockade of glutamate receptors of the NMDA and AMPA subtypes, prevents audiogenic seizures in these mice. Compounds that block the release of glutamate should similarly act to prevent seizure activity, and may be therapeutic in other neurologic disorders such as stroke, which also involves glutamate-mediated damage.
Mice were injected intraperitoneally with the compound specified in Table V below or with vehicle control, 30 minutes prior to being placed in a bell jar and turning on the auditory stimulus (12 KHz sine wave at 110-120 db). Administered doses are specified in Table V as milligram of compound per kilogram bodyweight of mouse. The auditory stimulus was left on for 60 seconds and mice reactions were timed and recorded.
Percentage inhibition was determined with reference to vehicle controls.

Compound | % Inhibition of ^3H-Glu Rel @ 0.3 μM [1] | Audiogenic Response % Inhib. ([2]; 40 mg/kg intraperitoneally) | Audiogenic Response % Inhib. ([2]; 20 mg/kg intraperitoneally) | also measured
CCCCc1ccc(NC(=N)Nc2ccc(CCCC)cc2)cc1.CS(=O)(=O)O [Example 37, N,N′-Bis(4-n-butylphenyl)guanidine.mesylate] | 57% | 92% | – | % Inhibition of ^3H-Glu Rel @ 1 μM [1]: 100%; Audiogenic Response % Inhib. ([2]; 25 mg/kg intraperitoneally): 82%
CCC(C)c1ccc(N(Cc2ccc(C(C)(C)C)cc2)C(=N)NN2CCSCC2)cc1.Cl (stereo not drawn) [Example 73, N-(4-sec-Butylphenyl)-N-(4-t-butylbenzyl)-N′-(4-thiomorpholinyl)guanidine.HCl] | – | 89% | 23% | % Inhibition of ^3H-Glu Rel @ 1 μM [1]: 59%
CC(C)(C)c1ccc(CN(C(=N)NN2CCOCC2)c2ccc(OCc3ccccc3)cc2)cc1.Cl [Example 79, N-(4-Benzyloxyphenyl)-N-(4-tert-butylbenzyl)-N′-(4-morpholinyl)guanidine.HCl] | 77% | 68% | 41% | –
CCCCc1ccc(NC(=N)Nc2ccc(OCc3ccccc3)cc2)cc1.Cl [Example 104, N-(4-Benzyloxyphenyl)-N′-(4-butylphenyl)guanidine.HCl] | 76% | 90% | 40% | –
CC(C)(C)c1ccc(NC(=N)Nc2cccc(COCc3ccccc3)c2)cc1.CS(=O)(=O)O [Example 106, N-3-(Benzyloxymethyl)phenyl-N′-(4-tert-butylphenyl)guanidine.mesylate] | 48% | 93% | – | –
CN(C(=N)Nc1ccc(OCc2ccccc2)cc1)c1ccc(OCc2ccccc2)cc1.CS(=O)(=O)O [Example 132, N,N′-Bis(4-benzyloxyphenyl)-N′-methylguanidine.mesylate] | 22% | – | – | –
Br.CCCCOc1ccc(NC(=N)Nc2ccc(OCCCC)cc2)cc1 [Example 137, N,N′-Bis(4-butoxyphenyl)guanidine.HBr] | – | 82% | 60% | –
Br.N=C(Nc1ccc(Oc2ccccc2)cc1)Nc1ccc(Oc2ccccc2)cc1 [Example 138, N,N′-Bis(4-phenoxyphenyl)guanidine.HBr] | 57% | – | – | –
CS(=O)(=O)O.N=C(Nc1ccc(N=Nc2ccccc2)cc1)Nc1cccc(OCc2ccccc2)c1 [Example 140, N-(3-Benzyloxyphenyl)-N′-(4-phenylazophenyl)guanidine.mesylate] | 44% | – | – | –
CN(C(=N)Nc1cccc(OCc2ccccc2)c1)c1cccc(OCc2ccccc2)c1.Cl [Example 141, N,N′-Bis(3-benzyloxyphenyl)-N′-methylguanidine.HCl] | 67% | – | – | –
CN(C(=N)Nc1cccc(OCc2ccccc2)c1)c1ccc(OCc2ccccc2)cc1 [N-(3-benzyloxyphenyl)-N′-(4-benzyloxyphenyl)-N′-methylguanidine] | 55% | – | – | –
N=C(Nc1ccc(OCc2ccccc2)cc1)Nc1ccc(SCc2ccccc2)cc1 [N-(4-benzyloxyphenyl)-N′-(4-benzylthiophenyl)guanidine] | 81% | – | – | –
N=C(Nc1ccc(OCc2ccccc2)cc1)Nc1ccc(Oc2ccccc2)cc1 [N-(4-benzyloxyphenyl)-N′-(4-phenoxyphenyl)guanidine] | – | 93% | 16% | –
N-(4-sec-Butylphenyl)-N-(4-tert-butylbenzyl)-N′-piperidinylguanidine.HCl [Example 74] | 21% | – | – | % Inhibition of ^3H-Glu Rel @ 1 μM [1]: 100%
N-(5-Acenaphthyl)-N′-((4-tert-butylphenyl)-(4-sec-butylphenyl)-N′-methylguanidine.HCl [Example 60] | – | – | – | % Inhibition of ^3H-Glu Rel @ 3 μM ([1]; 3 μM compound): 32%
N-(5-Acenaphthyl)-N′-(indolinyl)guanidine.mesylate [Example 29] | – | 81% | 42% | –
